# Assay results as given in patent publication US4226610A, “Herbicidal compounds, preparation thereof and herbicides containing the same” (Meiji Selka Kaisha, Ltd., priority 1978, dated 1980).
# Legend:
# [1] = system: aginashi; assay: Experiment 6 spray on aquatic plants in concrete pots; type: in vivo, Sagittaria Aginashi Makino; conditions: 3 months
# Description: (§1) The detail of the assessment made in the following Experiments of the invention was as follows:
# (§2) Four months after treatment, evaluation was made for inhibition of reproduction expressed in terms of symbols ranging from (-) to (+++) where (-) means no reproduction, namely complete suppression of reproduction, (±) remarkable suppression of reproduction; (+) considerable suppression of reproduction; (++) medium supprestion of reproduction; and (+++) no suppression of reproduction.
# (§3) A paddy field soil was packed in 50 cm. square concrete pots. omodaka (Sagittaria trifolia L.), urikawa (Sagittaria pygmaea Miq.), prog-bit (Hydrocharis dubia) and aginashi (Sagittaria Aginashi Makino) were transplanted; then water was poured onto the soil at 5 cm. depth.
# (§4) Further, water hyacinth, greater-duckweed (Spirodela polyrhiza Schleid.) and duckweed (Lemna paucicostata Hegelm) were floated on the water.
# (§5) After one month, the compounds of the invention diluted to the prescribed concentrations as indicated in Table 8 were sprayed in an amount of 100 liter per 10 are. As a surfactant, 0.1% of octylphenyl polyoxyethanol was added thereto.
# (§6) The killing index (0, no effect; 5, death) after 21 days and 3 months and the reproduction-inhibiting effect (-, no reproduction; +++, maximum reproduction) after 3 months were determined.
# [2] = system: manna grass; assay: Experiment 1 foliar application to naturally growing weeds; type: in vivo, Digitaria adsceudes Henr.; conditions: for Reproduction-inhibiting effect: 2 months
# Outline: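 Dilute compounds to prescribed concentrations; add 0.1% octylphenyl polyoxyethanol; spray foliage of in-situ weeds at 150 liter per 10 are. Score killing 0–5 on day 21. Score reproduction (-) to (+++) at month 2 (cockspar grass) or month 4 (chigaya, azumanezasa, warunasubi).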
# [3] = system: cockspar grass; assay: as above; type: in vivo, Echinochloa Crusgalli P. Beauv.; conditions: for Reproduction-inhibiting effect: 2 months
# Outline: (§7)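 Read-outs were a 0–5 killing index at 21 days and a reproduction score from (-), no reproduction, to (+++), no suppression. Reproduction was read at 2 months for cockspar grass and 4 months for the other species, after foliar spraying at 150 liter per 10 are with 0.1% surfactant.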
# [4] = system: duckweed; assay: Experiment 6 spray on aquatic plants in concrete pots; type: in vivo, Lemna paucicostata Hegelm; conditions: for Reproduction-inhibiting effect: 3 months
# Description: as §1, §2, §3, §4, §5, §6
# [5] = system: purple nutsedge; assay: Experiment 1 foliar application to naturally growing weeds; type: in vivo, Cyperus rotundus L.; conditions: 4 months
# Outline: (§8)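 Naturally growing weeds receive a foliar spray of compound at prescribed concentrations, 150 liter per 10 are, containing 0.1% octylphenyl polyoxyethanol. Kill is rated 0 (no effect) to 5 (death) after 21 days. Regrowth is rated (-) to (+++) after 4 months, or 2 months for cockspar grass.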
# [6] = system: torch azalea; assay: Experiment 3 foliar application to naturally growing shrubs; type: in vivo, Rhododendoron Kaempferi Planch.; conditions: for Reproduction-inhibiting: after 3 months
# Outline: (§9)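 Naturally growing shrubs were sprayed on the foliage at 150 liter per 10 are. Plant kill was then scored from 0 to 5 at 1 and 3 months, and reproduction was graded − to +++ at 3 months.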
# [7] = system: azumanezasa; assay: Experiment 1 foliar application to naturally growing weeds; type: in vivo, Pleioblastus Chino Makino; conditions: for Reproduction-inhibiting effect: 4 months; for Killing index of Upperground parts: 21 days
# Outline: as §7
# [8] = system: omodaka; assay: Experiment 6 spray on aquatic plants in concrete pots; type: in vivo, Sagittaria trifolia L.; conditions: for Reproduction-inhibiting effect: 3 months; for Killing index: 21 days
# Description: as §1, §2, §3, §4, §5, §6
# [9] = system: chigaya; assay: Experiment 1 foliar application to naturally growing weeds; type: in vivo, Imperata cylindrica Beauv.; conditions: for Reproduction-inhibiting effect: 4 months
# Outline: as §7
# [10] = system: Japanese prickly ash; assay: Experiment 3 foliar application to naturally growing shrubs; type: in vivo, Xanthoxylum piperitum DC.
# Outline: as §9
# [11] = system: diatoms; assay: Experiment 7 application to water; type: in vivo, Bacillariophyta; parameters: scale not given here
# Description: A black soil was packed in 50 cm. square concrete pots and water was poured there-onto at 50 cm. in depth. Hornwort (Ceratophyllum demersum L.), stonewort (Chara Braunii Gmel.) and salvinia (Salvinia natans All.) were transplanted and pond scum (Spirogira crassa Kutz) and diatoms (Bacillariophyta) were floated in the water.
# Then, the compounds of the invention were applied dropwise onto the surface of the water so that the prescribed concentrations in the water are obtained as indicated in Table 9.
# [12] = system: eulalia; assay: Experiment 2 foliar application in Japanese cypress afforested land; type: in vivo, Miscanthus sinensis Andress.; parameters: key: 0 = no effect, 5 = death; conditions: after 3 months
# Outline: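 Field foliar spray on shrubs in Japanese cypress afforested land at 150 liter per 10 are, with compounds at prescribed concentrations. Killing index scored from 0 (no effect) to 5 (death) at 30 days and 3 months. Plant heights ranged from about 50 to 100 cm.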
# [13] = system: yabugarashi; assay: Experiment 1 foliar application to naturally growing weeds; type: in vivo, Cayratia japonica Houtt.; conditions: for Reproduction-inhibiting effect: 4 months
# Outline: as §8
# [14] = system: weeds and shrubs; assay: Weeding effects, general statements; type: in vivo; conditions: as shown in Experiment 1
# [15] = system: chestnut; assay: Experiment 2 foliar application in Japanese cypress afforested land; type: in vivo, Castanea crenata Sieb et Zucc.; conditions: 0.063%; after 30 days
# Method: as §1
# (§10) The compounds of the invention and other compounds listed in Table 4. were diluted to prescribed concentrations and sprayed to shrubs by foliar application in a Japanese cypress afforested land in an amount of 150 liter per 10 are.
# (§11) After 30 days and 3 months, the killing index (0, no effect; 5, death) was determined.
# (§12) The heights of plants were 50-70 cm. for Japanese cypress, about 50 cm. for chestnut, 50-90 cm. for miyakozasa, about 100 cm. for eulalia and 70-100 cm. for kumaichigo, respectively.
# [16] = Solubility (Table 1); conditions: ethanol, organic solvent or mixture
# [17] = system: miyakozasa; assay: Experiment 2 foliar application in Japanese cypress afforested land; type: in vivo, Sasa nipponica Makino et Shibata; conditions: 0.125%; after 3 months
# Method: as §1, §10, §11, §12
smiles,measurement,setting,value
CP(=O)(O)CCC(N)C(=O)O (racemic) [DL-AMPB choline],Reproduction-inhibiting effect,[1]; 0.05%,++
same,Reproduction-inhibiting effect,[1]; 0.1%,±
same,Reproduction-inhibiting effect,[1]; 0.2%,-
same,Reproduction-inhibiting effect,[2]; 0.05%,++
same,Reproduction-inhibiting effect,[2]; 0.1%,±
same,Reproduction-inhibiting effect,[2]; 0.2%,-
same,Reproduction-inhibiting effect,[3]; 0.05%,++
same,Reproduction-inhibiting effect,[3]; 0.1%,±
same,Reproduction-inhibiting effect,[3]; 0.2%,-
same,Reproduction-inhibiting effect,[4]; 0.05%,+
same,Reproduction-inhibiting effect,[4]; 0.1%,-
same,Reproduction-inhibiting effect,[4]; 0.2%,-
same,Reproduction-inhibiting effect,[5]; 0.05%,++
same,Reproduction-inhibiting effect,[5]; 0.1%,+
same,Reproduction-inhibiting effect,[5]; 0.2%,±
same,Reproduction-inhibiting,[6]; 0.05%,++
same,Reproduction-inhibiting,[6]; 0.1%,-
same,Reproduction-inhibiting,[6]; 0.2%,-
same,Reproduction-inhibiting effect,[7]; 0.05%,++
same,Killing index of Upperground parts,[7]; 0.05%,1.5
same,Reproduction-inhibiting effect,[7]; 0.1%,±
same,Killing index of Upperground parts,[7]; 0.1%,3.5
same,Reproduction-inhibiting effect,[7]; 0.2%,-
same,Reproduction-inhibiting effect,[8]; 0.05%,++
same,Reproduction-inhibiting effect,[8]; 0.1%,±
same,Reproduction-inhibiting effect,[8]; 0.2%,-
same,Killing index,[8]; 0.2%,4.5
same,Reproduction-inhibiting effect,[9]; 0.05%,++
same,Reproduction-inhibiting effect,[9]; 0.1%,-
same,Killing index of Upperground parts,"[9]; 0.1%, 21 days",4.5
same,Reproduction-inhibiting effect,[9]; 0.2%,-
same,Reproduction-inhibiting,"[10]; 0.05%, after 3 months",++
same,Reproduction-inhibiting,"[10]; 0.1%, after 3 months",+
same,Reproduction-inhibiting,"[10]; 0.2%, after 3 months",-
same,controlling effect,"[11]; 1 ppm, 3 months",1
same,controlling effect,"[11]; 1 ppm, 21 days",3
same,controlling effect,"[11]; 3 ppm, 3 months",5
same,controlling effect,"[11]; 3 ppm, 21 days",4
same,controlling effect,"[11]; 10 ppm, 3 months",5
same,controlling effect,"[11]; 10 ppm, 21 days",5
same,Killing index,[12]; 0.125%,4.5
same,Reproduction-inhibiting effect,[13]; 0.05%,++
same,Reproduction-inhibiting effect,[13]; 0.1%,±
same,Reproduction-inhibiting effect,[13]; 0.2%,-
"CP(=O)(O)CC[C@H](N)C(=O)O [L-AMPB choline, L-2-Amino-4-methylphosphino-butanoic acid choline]",effectiveness relative to monosodium or monodiethylammonium salts of L-2-amino-4-methylphosphinobutanoic acid,[14],twice effective
same,Reproduction-inhibiting effect,[1]; 0.05%,±
same,Reproduction-inhibiting effect,[1]; 0.1%,-
same,Reproduction-inhibiting effect,[1]; 0.2%,-
same,Reproduction-inhibiting effect,[2]; 0.05%,±
same,Reproduction-inhibiting effect,[2]; 0.1%,-
same,Reproduction-inhibiting effect,[2]; 0.2%,-
same,Reproduction-inhibiting effect,[3]; 0.05%,±
same,Reproduction-inhibiting effect,[3]; 0.1%,-
same,Reproduction-inhibiting effect,[3]; 0.2%,-
same,Reproduction-inhibiting effect,[4]; 0.05%,-
same,Reproduction-inhibiting effect,[4]; 0.1%,-
same,Reproduction-inhibiting effect,[4]; 0.2%,-
same,Reproduction-inhibiting effect,[5]; 0.05%,+
same,Reproduction-inhibiting effect,[5]; 0.1%,±
same,Reproduction-inhibiting effect,[5]; 0.2%,-
same,Reproduction-inhibiting,[6]; 0.05%,-
same,Reproduction-inhibiting,[6]; 0.1%,-
same,Reproduction-inhibiting,[6]; 0.2%,-
same,Killing index,[15],3.5
same,Reproduction-inhibiting effect,[7]; 0.05%,±
same,Reproduction-inhibiting effect,[7]; 0.1%,-
same,Reproduction-inhibiting effect,[7]; 0.2%,-
same,Reproduction-inhibiting effect,[8]; 0.05%,+
same,Reproduction-inhibiting effect,[8]; 0.1%,-
same,Killing index,[8]; 0.1%,4.5
same,Reproduction-inhibiting effect,[8]; 0.2%,-
same,Reproduction-inhibiting effect,[9]; 0.05%,-
same,Reproduction-inhibiting effect,[9]; 0.1%,-
same,Reproduction-inhibiting effect,[9]; 0.2%,-
same,Killing index,"[10]; 0.05%, after 3 months",4.5
same,Reproduction-inhibiting,"[10]; 0.05%, after 3 months",±
same,Killing index,"[10]; 0.05%, after 30 days",4.5
same,Reproduction-inhibiting,"[10]; 0.1%, after 3 months",-
same,Reproduction-inhibiting,"[10]; 0.2%, after 3 months",-
same,controlling effect,"[11]; 1 ppm, 3 months",4
same,controlling effect,"[11]; 1 ppm, 21 days",4
same,controlling effect,"[11]; 3 ppm, 3 months",5
same,controlling effect,"[11]; 3 ppm, 21 days",5
same,controlling effect,"[11]; 10 ppm, 3 months",5
same,controlling effect,"[11]; 10 ppm, 21 days",5
same,Killing index,[12]; 0.063%,3.5
same,Reproduction-inhibiting effect,[13]; 0.05%,±
same,Reproduction-inhibiting effect,[13]; 0.1%,-
same,Reproduction-inhibiting effect,[13]; 0.2%,-
"C[C@H](NC(=O)[C@H](C)NC(=O)[C@@H](N)CCP(C)(=O)O)C(=O)O [SF-1293 choline, (L-2-Amino-4-methylphosphinobutyryl)-L-alanyl-L-alanine choline]",Reproduction-inhibiting effect,[1]; 0.05%,++
same,Reproduction-inhibiting effect,[1]; 0.1%,±
same,Reproduction-inhibiting effect,[1]; 0.2%,-
same,Reproduction-inhibiting effect,[2]; 0.05%,+
same,Reproduction-inhibiting effect,[2]; 0.1%,±
same,Killing index of Upperground parts,"[2]; 0.1%, 21 days",4.5
same,Reproduction-inhibiting effect,[2]; 0.2%,-
same,Reproduction-inhibiting effect,[3]; 0.05%,+
same,Reproduction-inhibiting effect,[3]; 0.1%,±
same,Killing index of Upperground parts,"[3]; 0.1%, 21 days",4.5
same,Reproduction-inhibiting effect,[3]; 0.2%,-
same,Reproduction-inhibiting effect,[4]; 0.05%,+
same,Reproduction-inhibiting effect,[4]; 0.1%,-
same,Killing index,"[4]; 0.1%, 21 days",4.5
same,Reproduction-inhibiting effect,[4]; 0.2%,-
same,Reproduction-inhibiting effect,[5]; 0.05%,++
same,Reproduction-inhibiting effect,[5]; 0.1%,+
same,Reproduction-inhibiting effect,[5]; 0.2%,±
same,Reproduction-inhibiting,[6]; 0.05%,++
same,Reproduction-inhibiting,[6]; 0.1%,-
same,Killing index,"[6]; 0.1%, after 30 days",4.5
same,Reproduction-inhibiting,[6]; 0.2%,-
same,Reproduction-inhibiting effect,[7]; 0.05%,+
same,Reproduction-inhibiting effect,[7]; 0.1%,-
same,Reproduction-inhibiting effect,[7]; 0.2%,-
same,Reproduction-inhibiting effect,[8]; 0.05%,++
same,Reproduction-inhibiting effect,[8]; 0.1%,±
same,Reproduction-inhibiting effect,[8]; 0.2%,-
same,Reproduction-inhibiting effect,[9]; 0.05%,+
same,Reproduction-inhibiting effect,[9]; 0.1%,-
same,Reproduction-inhibiting effect,[9]; 0.2%,-
same,solubility,[16],310 mg/mL
same,Reproduction-inhibiting,"[10]; 0.05%, after 3 months",++
same,Killing index,"[10]; 0.1%, after 3 months",4.5
same,Reproduction-inhibiting,"[10]; 0.1%, after 3 months",±
same,Reproduction-inhibiting,"[10]; 0.2%, after 3 months",-
same,controlling effect,"[11]; 1 ppm, 3 months",1
same,controlling effect,"[11]; 1 ppm, 21 days",2
same,controlling effect,"[11]; 3 ppm, 3 months",5
same,controlling effect,"[11]; 3 ppm, 21 days",3
same,controlling effect,"[11]; 10 ppm, 3 months",5
same,controlling effect,"[11]; 10 ppm, 21 days",5
same,Killing index,[12]; 0.125%,4.5
same,Reproduction-inhibiting effect,[13]; 0.05%,++
same,Killing index of Upperground parts,"[13]; 0.05%, 21 days",3.5
same,Reproduction-inhibiting effect,[13]; 0.1%,±
same,Reproduction-inhibiting effect,[13]; 0.2%,-
same,Killing index,[17],4.5
